Tests used:
Assay in all cases: relative viability (nuclei count vs DMSO), 5 days (fraction); higher = more cells survive
[1] = compound: C1=CC=C(C(=C1)C2=CC=C(C=C2)C3=CSC4=C3C(=C(C(=O)N4)C#N)O)O + CC1(C)CCC(c2ccc(Cl)cc2)=C(CN2CCN(c3ccc(C(=O)NS(=O)(=O)c4ccc(N[C@H](CCN5CCOCC5)CSc5ccccc5)c(S(=O)(=O)C(F)(F)F)c4)cc3)CC2)C1 [Navitoclax] (partner 0.5 µM)
Outline: (§1)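 Lung cancer cell lines in 1536-well plates got either a single drug or a fixed anchor-drug dose together with five library-drug doses (not always all listed) in √10 steps, by pin tool, on the day after seeding. Nuclei were counted after 5 days, and relative viability is the treated-to-vehicle ratio of nuclei counts. Values are medians of duplicate plates.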

[2] = compound: C1=CC=C(C(=C1)C2=CC=C(C=C2)C3=CSC4=C3C(=C(C(=O)N4)C#N)O)O + CS(=O)(=O)CCNCc1ccc(-c2ccc3ncnc(Nc4ccc(OCc5cccc(F)c5)c(Cl)c4)c3c2)o1 [Lapatinib] (partner 2 µM)
Outline: as §1

TGX 221 + Bortezomib = compound: CC1=CN2C(=O)C=C(N=C2C(=C1)C(C)NC3=CC=CC=C3)N4CCOCC4 [TGX 221] + CC(C)C[C@H](NC(=O)[C@H](Cc1ccccc1)NC(=O)c1cnccn1)B(O)O [Bortezomib] (partner 0.002 µM)
Outline: as §1

TGX 221 + Linsitinib = compound: CC1=CN2C(=O)C=C(N=C2C(=C1)C(C)NC3=CC=CC=C3)N4CCOCC4 [TGX 221] + C[C@]1(O)C[C@@H](c2nc(-c3ccc4ccc(-c5ccccc5)nc4c3)c3c(N)nccn32)C1 [Linsitinib] (partner 1 µM)
Outline: as §1

Cell Line | relative viability ([1]; first compound 0.08 µM) | relative viability ([1]; first compound 0.253 µM) | relative viability ([1]; first compound 0.8 µM) | relative viability ([1]; first compound 2.53 µM) | relative viability ([1]; first compound 8 µM) | relative viability ([2]; first compound 0.08 µM) | relative viability ([2]; first compound 0.253 µM) | relative viability ([2]; first compound 0.8 µM) | relative viability ([2]; first compound 2.53 µM) | relative viability ([2]; first compound 8 µM) | relative viability (TGX 221 + Bortezomib; first compound 0.08 µM) | relative viability (TGX 221 + Bortezomib; first compound 0.253 µM) | relative viability (TGX 221 + Bortezomib; first compound 0.8 µM) | relative viability (TGX 221 + Bortezomib; first compound 2.53 µM) | relative viability (TGX 221 + Bortezomib; first compound 8 µM) | relative viability (TGX 221 + Linsitinib; first compound 0.08 µM) | relative viability (TGX 221 + Linsitinib; first compound 0.253 µM) | relative viability (TGX 221 + Linsitinib; first compound 0.8 µM) | relative viability (TGX 221 + Linsitinib; first compound 2.53 µM) | relative viability (TGX 221 + Linsitinib; first compound 8 µM)
PC-3 [JPC-3] | 0.913 | 0.816 | 0.849 | 0.765 | 0.808 | 0.488 | 0.556 | 0.479 | 0.441 | 0.472 | 0.759 | 0.73 | 0.883 | 0.735 | 0.851 | 0.963 | 0.973 | 0.997 | 0.922 | 0.918
NCI-H1651 | 1.07 | 0.941 | 1.05 | 1.1 | 0.642 | 0.697 | 0.799 | 0.78 | 0.821 | 0.683 |  | 0.96 | 0.919 | 0.868 | 0.858 | 0.851 | 0.67 | 0.723 | 0.726 | 0.533
CAL-12T |  | 1.23 | 1.22 | 1.45 | 1.06 |  | 0.848 | 0.604 | 0.617 | 0.599 |  | 0.952 | 0.918 |  | 1.05 | 0.803 | 0.72 | 0.758 | 0.513 | 0.626
NCI-H23 | 0.883 | 0.746 | 1 | 0.754 | 0.468 | 1.36 | 1.09 | 1.19 | 1.08 | 0.843 | 0.861 | 1.21 | 1.11 | 1.03 | 0.963 | 0.471 | 0.532 | 0.525 | 0.531 | 0.477
NCI-H2228 | 1 | 1.12 | 0.828 | 1.12 | 0.848 | 0.701 | 1.33 | 0.814 | 0.998 | 1.1 | 1.02 | 0.787 | 1.21 | 0.77 | 0.751 | 0.411 | 0.624 | 0.625 | 0.29 | 0.344
IA-LM | 0.696 | 1.06 | 0.76 | 0.797 | 0.399 | 0.538 | 0.413 | 0.599 | 0.952 | 0.537 | 0.915 | 1.02 | 1.04 | 0.869 | 0.735 | 0.685 | 0.509 | 0.58 | 0.621 | 0.685

Reference: the supplement of paper PMC10307832
